Results as given in publication PMC11779924 (Nature Communications, 2025).

Tests used:
[1] = tested on: beagles with blood clot defect (heparin); design: species or system beagle; settings: dog, in vivo
[2] = tested on: hypertensive rats with blood clot defect (BCD); assay: Rat incisor extraction BCD model: coagulation time; format: in vivo; settings: treated immediately after tooth extraction, n = 12
BCD rats = settings: rat, in vivo
beagles = assay: Beagle BCD model: overall toxicity incl. cardiotoxicity and organ H&E
[3] = tested on: hypertensive rats with blood clot defect (BCD); format: in vivo, rat; settings: micro-CT
[4] = tested on: beagles with blood clot defect (heparin); assay: Beagle tooth extraction BCD model: coagulation time; format: in vivo; settings: treated immediately after tooth extraction, n = 7
healthy SD rats = settings: subcutaneous implantation, n = 6
[5] = tested on: hypertensive rats with blood clot defect (BCD); assay: Rat BCD model: immunofluorescent staining of CD73&Fak, Runx2, Alp; format: in vivo; settings: BCgel vs Ctrl, n = 6

## (RADA)4GSVLGYIQIR [BCgel]
[1]
  elevation in Tb.N compared to the Ctrl group: 56%
  enhancement in BMD compared to the Ctrl group: 105%
  increase in BV/TV compared to the Ctrl group: 143%
  reduction in Tb.Sp compared to the Ctrl group: 60%
[2]
  reduction in coagulation time compared to gelform: 55%
BCD rats
  increase in bone mineral density (BMD): 39%
  reduction in trabecular separation (Tb.Sp): 50%
beagles; BCgel for two months, n = 4
  immunotoxicity, hematotoxicity, hepatotoxicity, nephrotoxicity, cardiotoxicity: did not result in any observed immunotoxicity
beagles; five months after tooth extraction, n = 3
  physiological toxicity (hematotoxicity, hepatotoxicity, nephrotoxicity, cardiotoxicity): no signs of physiological toxicity
[3]; 0.5% BCgel vs gelform (Ctrl), n = 3
  osteogenic effects of mechanically unloaded BCgel: negligible osteogenic effects
[3]; 1 week post-treatment, n = 6
  decrease in Tb.Sp compared to the Ctrl group: 47%
  increase in BMD compared to the Ctrl group: 73%
  increase in BV/TV compared to the Ctrl group: 84%
[4]
  reduction in coagulation time vs gelform (Ctrl): 69%
Healthy SD rats
  hematological parameters: nor did they have any impact on hematological parameters
  hepatic or renal function: neither BCgel nor gelform induced any hepatic or renal abnormalities
[5]; one-month post-treatment
  increase in CD73+&Fak+ double positive cells: 15 fold
[5]; one-week post-treatment
  increase in CD73+&Fak+ double positive cells: 31 fold
